# pIC50: −log10 of the molar value. The source made the active and inactive calls. The calls are words filed in the database; no cut-off is given here.
# Assays:
# [1] = system: Protein cereblon/Androgen receptor (Homo sapiens), P10275+Q96SW2 [UNDEFINED MUTATION]; experiment: PROTAC activity at CRBN/Androgen receptor splice variant 7 in human 22Rv1 cells assessed as induction of AR-V7 degradation at 20 nM incubated for 18 hrs by Western blot analysis (reference value: 0%); type: cell-based
# [2] = system: Protein cereblon/Androgen receptor (Homo sapiens), P10275+Q96SW2 [UNDEFINED MUTATION]; experiment: PROTAC activity at CRBN/Androgen receptor splice variant 7 in human Enzalutamide-resistant LNCaP cells assessed as induction of AR-V7 degradation at 1 to 300 nM by Western blot analysis; type: cell-based; details: dose 1-300 nM
# [3] = system: Protein cereblon/Androgen receptor (Homo sapiens), P10275+Q96SW2 [UNDEFINED MUTATION]; experiment: PROTAC activity at CRBN/Androgen receptor splice variant 7 in human VCaP cells assessed as induction of AR-V7 degradation at 0.1 uM incubated for 24 hrs by Western blot analysis relative to control; type: cell-based
# [4] = molecular target: T1, Protein cereblon/Eukaryotic peptide chain release factor GTP-binding subunit ERF3A (Homo sapiens, UniProt Q96SW2+P15170); experiment: Molecular glue activity at CRBN/GSPT1 in human VCaP cells assessed as induction of GSPT1 degradation incubated for 24 hrs by Western blot analysis; type: cell-based
# [5] = Cmax in male ICR mouse at 10 mg/kg, po by LC-MS/MS analysis; type: ADME, organism-based; details: in vivo
# LNCaP [6] = experiment: Induction of apoptosis in human LNCaP cells assessed as increase in cleaved caspase-3 expression incubated for 24 hrs by Western blot analysis; type: functional, cell-based; details: dose 1-100 nM
# [7] = molecular target: T2, Protein cereblon/Androgen receptor (Homo sapiens, UniProt P10275+Q96SW2); experiment: Binding affinity to CRBN/AR in human 22Rv1 cells assessed as ternary complex formation incubated for 6 hrs by co-immunoprecipitation based Western blot analysis; type: cell-based
# Target sequence in this assay (P10275 whole entry, looked up): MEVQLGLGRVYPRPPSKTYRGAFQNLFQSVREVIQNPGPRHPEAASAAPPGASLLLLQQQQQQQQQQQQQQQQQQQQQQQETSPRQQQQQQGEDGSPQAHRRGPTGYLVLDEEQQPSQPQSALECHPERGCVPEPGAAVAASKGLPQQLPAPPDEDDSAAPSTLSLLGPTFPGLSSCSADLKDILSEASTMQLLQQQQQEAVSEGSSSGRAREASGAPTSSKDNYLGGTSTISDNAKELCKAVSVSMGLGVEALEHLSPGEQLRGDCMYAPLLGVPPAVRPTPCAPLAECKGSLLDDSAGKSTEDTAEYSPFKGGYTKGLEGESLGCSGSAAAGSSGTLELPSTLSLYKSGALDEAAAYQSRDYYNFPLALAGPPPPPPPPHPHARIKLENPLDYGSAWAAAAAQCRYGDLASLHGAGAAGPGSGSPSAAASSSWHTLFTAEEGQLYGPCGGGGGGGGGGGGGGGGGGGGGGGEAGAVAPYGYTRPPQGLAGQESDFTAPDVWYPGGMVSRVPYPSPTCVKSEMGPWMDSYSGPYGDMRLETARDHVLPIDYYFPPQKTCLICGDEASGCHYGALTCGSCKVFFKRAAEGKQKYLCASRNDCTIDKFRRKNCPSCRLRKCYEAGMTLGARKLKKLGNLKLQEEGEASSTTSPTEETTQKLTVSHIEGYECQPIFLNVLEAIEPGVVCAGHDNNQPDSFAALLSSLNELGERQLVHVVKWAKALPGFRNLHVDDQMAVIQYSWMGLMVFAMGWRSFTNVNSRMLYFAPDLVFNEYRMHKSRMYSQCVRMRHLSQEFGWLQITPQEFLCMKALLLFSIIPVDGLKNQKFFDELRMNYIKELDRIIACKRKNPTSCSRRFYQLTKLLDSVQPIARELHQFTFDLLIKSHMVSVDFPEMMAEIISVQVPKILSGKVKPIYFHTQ
# Target sequence in this assay (Q96SW2 whole entry, looked up): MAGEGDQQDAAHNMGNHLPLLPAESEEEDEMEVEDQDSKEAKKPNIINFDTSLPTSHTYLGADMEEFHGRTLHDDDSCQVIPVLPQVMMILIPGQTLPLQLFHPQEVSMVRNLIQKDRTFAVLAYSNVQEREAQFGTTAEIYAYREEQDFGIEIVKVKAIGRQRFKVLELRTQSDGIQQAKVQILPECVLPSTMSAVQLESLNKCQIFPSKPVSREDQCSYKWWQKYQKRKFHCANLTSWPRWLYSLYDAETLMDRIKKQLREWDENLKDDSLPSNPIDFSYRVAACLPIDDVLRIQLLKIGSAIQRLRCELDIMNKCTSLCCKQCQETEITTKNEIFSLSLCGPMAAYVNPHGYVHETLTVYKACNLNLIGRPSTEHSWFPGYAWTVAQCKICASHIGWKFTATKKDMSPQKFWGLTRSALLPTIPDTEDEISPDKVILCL
# [8] = molecular target: T2, Protein cereblon/Androgen receptor; experiment: PROTAC activity at CRBN/AR in human 22Rv1 cells assessed as induction of AR degradation by measuring maximal efficacy incubated for 24 hrs by Western blot analysis relative to control; type: cell-based
# Target sequence in this assay (P10275 whole entry, looked up): as the sequence (P10275 whole entry, looked up) above
# Target sequence in this assay (Q96SW2 whole entry, looked up): as the sequence (Q96SW2 whole entry, looked up) above
# LNCaP [9] = experiment: Induction of apoptosis in human LNCaP cells assessed as increase in cleaved PARP expression incubated for 24 hrs by Western blot analysis; type: functional, cell-based; details: dose 1-100 nM
# [10] = molecular target: Protein cereblon/Zinc finger protein Helios (Homo sapiens) (UniProt Q96SW2+Q9UKS7); experiment: Molecular glue activity at CRBN/IKZF2 in human 22Rv1 cells assessed as induction of IKZF2 degradation at 1 uM incubated for 6 hrs by Western blot analysis; type: cell-based
# CWR22R [11] = experiment: Cell cycle arrest in human 22Rv1 cells assessed as accumulation of cells at G1 phase at 30 nM incubated for 24 hrs by flow cytometric analysis (reference value: 49.7 %); type: functional
# [12] = molecular target: T2, Protein cereblon/Androgen receptor; experiment: (§1) PROTAC activity at CRBN/Androgen receptor splice variant 7 in human VCaP cells assessed as induction of AR-V7 degradation incubated for 24 hrs by Western blot analysis; type: cell-based
# [13] = system: Protein cereblon/Androgen receptor (Homo sapiens), P10275+Q96SW2 [UNDEFINED MUTATION]; experiment: as §1; type: cell-based
# [14] = system: Protein cereblon/Androgen receptor (Homo sapiens), P10275+Q96SW2 [UNDEFINED MUTATION]; experiment: PROTAC activity at CRBN/Androgen receptor splice variant 7 in human Enzalutamide-resistant VCaP cells assessed as induction of AR-V7 degradation at 1 to 300 nM by Western blot analysis; type: cell-based; details: dose 1-300 nM
# CWR22R [15] = experiment: Upregulation of ribosome-related pathway gene expression in human 22Rv1 cells at 3 nM incubated for 24 hrs by GSEA analysis; type: functional, cell-based
# DU-145 = experiment: Antiproliferative activity against AR-independent human DU-145 cells assessed as cell growth inhibition incubated for 72 hrs by Celltiter-lumi luminescent cell viability assay; type: functional, cell-based; details: DU-145, 72 h
# [16] = molecular target: T1, Protein cereblon/Eukaryotic peptide chain release factor GTP-binding subunit ERF3A; experiment: Molecular glue activity at CRBN/GSPT1 in human 22Rv1 cells assessed as induction of GSPT1 degradation at 0.01 uM incubated for 24 hrs by Western blot analysis relative to control; type: cell-based
# Target sequence in this assay (P15170 whole entry, looked up): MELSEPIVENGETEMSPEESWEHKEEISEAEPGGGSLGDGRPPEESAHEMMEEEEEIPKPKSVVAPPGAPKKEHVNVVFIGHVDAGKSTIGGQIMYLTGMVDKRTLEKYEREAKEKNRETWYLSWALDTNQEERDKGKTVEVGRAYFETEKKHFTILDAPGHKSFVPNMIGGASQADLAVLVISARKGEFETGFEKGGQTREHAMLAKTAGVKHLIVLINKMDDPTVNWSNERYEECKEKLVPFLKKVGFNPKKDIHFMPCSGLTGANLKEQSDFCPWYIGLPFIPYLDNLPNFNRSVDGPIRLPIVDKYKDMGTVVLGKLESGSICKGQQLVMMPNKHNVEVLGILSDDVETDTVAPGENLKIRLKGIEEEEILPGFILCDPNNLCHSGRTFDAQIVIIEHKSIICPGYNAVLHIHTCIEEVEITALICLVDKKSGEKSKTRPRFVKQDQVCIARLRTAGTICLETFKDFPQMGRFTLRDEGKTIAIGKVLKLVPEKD
# Target sequence in this assay (Q96SW2 whole entry, looked up): as the sequence (Q96SW2 whole entry, looked up) above
# [17] = molecular target: T2, Protein cereblon/Androgen receptor; experiment: PROTAC activity at CRBN/AR in human VCaP cells assessed as induction of AR degradation at 50 nM preincubated with MG132 followed by compound addition and measured after 12 hrs by Western blot analysis; type: cell-based
# Target sequence in this assay (P10275 whole entry, looked up): as the sequence (P10275 whole entry, looked up) above
# Target sequence in this assay (Q96SW2 whole entry, looked up): as the sequence (Q96SW2 whole entry, looked up) above
# [18] = molecular target: T1, Protein cereblon/Eukaryotic peptide chain release factor GTP-binding subunit ERF3A; experiment: Molecular glue activity at CRBN/GSPT1 in human VCaP cells assessed as induction of GSPT1 degradation at 20 nM measured after 6 hrs by Western blot analysis; type: cell-based
# Target sequence in this assay (P15170 whole entry, looked up): as the sequence (P15170 whole entry, looked up) above
# Target sequence in this assay (Q96SW2 whole entry, looked up): as the sequence (Q96SW2 whole entry, looked up) above
# [19] = system: Protein cereblon/Androgen receptor (Homo sapiens), P10275+Q96SW2 [UNDEFINED MUTATION]; experiment: PROTAC activity at CRBN/Androgen receptor splice variant 7 in human 22Rv1 cells assessed as induction of AR-V7 degradation at 50 nM preincubated with MG132 followed by compound addition and measured after 12 hrs by Western blot analysis; type: cell-based
# [20] = molecular target: T2, Protein cereblon/Androgen receptor; experiment: PROTAC activity at CRBN/AR in human LNCaP cells assessed as induction of AR degradation incubated for 24 hrs by Western blot analysis; type: cell-based
# [21] = molecular target: T2, Protein cereblon/Androgen receptor; experiment: PROTAC activity at CRBN/AR in human 22Rv1 cells assessed as induction of AR degradation at 50 nM preincubated with MG132 followed by compound addition and measured after 12 hrs by Western blot analysis; type: cell-based
# Target sequence in this assay (P10275 whole entry, looked up): as the sequence (P10275 whole entry, looked up) above
# Target sequence in this assay (Q96SW2 whole entry, looked up): as the sequence (Q96SW2 whole entry, looked up) above
# [22] = molecular target: T2, Protein cereblon/Androgen receptor; experiment: PROTAC activity at CRBN/AR in human Enzalutamide-resistant LNCaP cells assessed as induction of androgen receptor degradation at 1 to 300 nM by Western blot analysis; type: cell-based; details: dose 1-300 nM
# Target sequence in this assay (P10275 whole entry, looked up): as the sequence (P10275 whole entry, looked up) above
# Target sequence in this assay (Q96SW2 whole entry, looked up): as the sequence (Q96SW2 whole entry, looked up) above
# [23] = system: Protein cereblon/Androgen receptor (Homo sapiens), P10275+Q96SW2 [UNDEFINED MUTATION]; experiment: Binding affinity to CRBN/AR-V7 in human 22Rv1 cells assessed as ternary complex formation incubated for 6 hrs by co-immunoprecipitation based Western blot analysis; type: cell-based
# [24] = system: Protein cereblon/Androgen receptor (Homo sapiens), P10275+Q96SW2 [UNDEFINED MUTATION]; experiment: PROTAC activity at CRBN/Androgen receptor splice variant 7 in human 22Rv1 cells assessed as induction of AR-V7 degradation at 50 nM preincubated with MLN4924 followed by compound addition and measured after 12 hrs by Western blot analysis; type: cell-based
# [25] = Antiproliferative activity against human Enzalutamide-resistant VCaP cells assessed as cell growth inhibition incubated for 72 hrs by Celltiter-lumi luminescent cell viability assay; type: functional, cell-based
# [26] = molecular target: T2, Protein cereblon/Androgen receptor; experiment: PROTAC activity at CRBN/AR in human 22Rv1 cells assessed as decrease in TMPRSS2 mRNA level at 1 to 3 nM incubated for 24 hrs by qRT-PCR analysis; type: cell-based; details: dose 1-3 nM
# Target sequence in this assay (P10275 whole entry, looked up): as the sequence (P10275 whole entry, looked up) above
# Target sequence in this assay (Q96SW2 whole entry, looked up): as the sequence (Q96SW2 whole entry, looked up) above
# [27] = molecular target: T2, Protein cereblon/Androgen receptor; experiment: PROTAC activity at CRBN/AR in human LNCaP cells assessed as decrease in PSA mRNA level at 10 to 100 nM incubated for 24 hrs by qRT-PCR analysis; type: cell-based; details: dose 10-100 nM
# [28] = molecular target: T2, Protein cereblon/Androgen receptor; experiment: PROTAC activity at CRBN/AR in human 22Rv1 cells assessed as decrease in FKBP51 protein level incubated for 24 hrs by Western blot analysis; type: cell-based; details: dose 1-10 nM
# [29] = molecular target: Protein cereblon/Zinc finger protein Aiolos (Homo sapiens) (UniProt Q96SW2+Q9UKT9); experiment: Molecular glue activity at CRBN/IKZF3 in human 22Rv1 cells assessed as induction of IKZF3 degradation at 1 uM incubated for 6 hrs by Western blot analysis; type: cell-based
# [30] = molecular target: T1, Protein cereblon/Eukaryotic peptide chain release factor GTP-binding subunit ERF3A; experiment: In vivo molecular glue activity at CRBN/GSPT1 in male NOD SCID mouse model xenografted with human LNCaP cells assessed as reduction in GSPT1 level in tumor at 20 mg/kg, po administered daily for 26 days by Western blot analysis; type: functional, organism-based; details: time 26.0 day
# Target sequence in this assay (P15170 whole entry, looked up): as the sequence (P15170 whole entry, looked up) above
# Target sequence in this assay (Q96SW2 whole entry, looked up): as the sequence (Q96SW2 whole entry, looked up) above
# CWR22R [31] = experiment: Downregulation of RCC2 gene expression in human 22Rv1 cells at 3 nM incubated for 24 hrs by Volcano plot analysis; type: functional, cell-based
# Protein cereblon/Androgen receptor (Homo sapiens), P10275+Q96SW2 [UNDEFINED MUTATION], sequence (P10275 whole entry, looked up, stated change not applied, canonical isoform): as the sequence (P10275 whole entry, looked up) above
# Protein cereblon/Androgen receptor (Homo sapiens), P10275+Q96SW2 [UNDEFINED MUTATION], sequence (Q96SW2 whole entry, looked up, stated change not applied, canonical isoform): as the sequence (Q96SW2 whole entry, looked up) above
compound,measurement,setting,value
COc1ccc(C(C)(C)c2cc(Cl)c(OCC3CCN(C(=O)CCCCCNc4ccc5c(c4)C(=O)N(C4CCC(=O)NC4=O)C5=O)CC3)c(C#N)c2)cc1 (centres undefined),Activity,[1],91.4%
same,Activity,[2],Active
same,Activity,[3],81.3%
same,Activity,[4],Dose-dependent-effect
same,DC50,[4],0.6 nM
same,Cmax,[5],206 ng/mL
same,Activity,LNCaP [6],Dose-dependent-effect
same,Activity,[7],Active
same,Emax,[8],90%
same,Activity,LNCaP [9],Dose-dependent-effect
same,Activity,[10],inactive
same,Activity,CWR22R [11],74.6%
same,DC50,[12],2.5 nM
same,Activity,[13],Dose-dependent-effect
same,Activity,[14],Active
same,Activity,CWR22R [15],Active
same,pIC50,DU-145,6.05
same,Activity,[16],93.9%
same,Activity,[17],inactive
same,Activity,[18],Active
same,Activity,[19],inactive
same,Activity,[20],Dose-dependent-effect
same,DC50,[20],15.6 nM
same,Activity,[21],inactive
same,Activity,[22],Active
same,Activity,[23],Active
same,Activity,[24],inactive
same,pIC50,[25],8.16
same,Activity,[26],Active
same,Activity,[27],Active
same,Activity,[28],Dose-dependent-effect
same,Activity,[29],inactive
same,Activity,[30],Active
same,Activity,CWR22R [31],Active

# — ChEMBL document CHEMBL6177998, “Rational Design of Dual Degraders by Incorporating Molecular Glue Structural Features into PROTAC Degraders” (J Med Chem, 2025)
